Reference: the OligoGym collection
Values joined by “and” are separate entries in the source; they are usually repeats but may differ in a detail not shown here. Equal entries are not always repeated. After the bases stand the sugars from the 5' end (letter, count) and the backbone: PS all phosphorothioate, else s phosphorothioate and o phosphodiester by linkage. Methylation of C is not given here. e = 2'-O-(2-methoxyethyl) (MOE); k = constrained ethyl (cEt); d = 2'-deoxy (DNA)

Molecular target: APOL1
Settings: ASO

Sequence	target mRNA inhibition (A431, 0.0156 µM) [%]	target mRNA inhibition (A431, 0.0625 µM)	target mRNA inhibition (A431, 0.25 µM)	target mRNA inhibition (A431, 1 µM)	target mRNA inhibition (A431, 2 µM)	target mRNA inhibition (A431, 0.04 µM)
GAGTATTGTTTTTGTG (sugars k3 d5 k3 d5, PS)	37	74% and 66%	91% and 88%	95% and 94%	93% and 94%	–
GAGTATTGTTTTTGTG (sugars kkddddkdkdkddddd, PS)	17	34%	70%	88%	92%	–
GAGTATTGTTTTTGTG (sugars kkddddkekekddddd, PS)	–	–	–	–	90%	–
GAGTATTGTTTTTGTG (sugars kkkddddkdkdkdddd, PS)	–	–	–	–	54%	–
GATGTGTTTAGGCATT (sugars k4 d9 k3, PS)	–	–	71% and 83%	90% and 91%	–	–
GATTTTCCAACAAGGT (sugars k4 d9 k3, PS)	–	54%	80%	92%	–	–
GCAAGGTTGTCCAGAG (sugars k4 d9 k3, PS)	–	43%	61%	61%	–	–
GCAATGCTGACTTGGC (sugars kdddddkekekddddd, PS)	–	–	–	–	85%	–
GCAATGCTGACTTGGC (sugars kddddkekekeddddd, PS)	–	–	–	–	45%	–
GCAGGTTCACATGACA (sugars k4 d9 k3, PS)	–	39%	58%	72%	–	–
GCAGTTTTGTAAGTGC (sugars k2 d4 e3 k2 d5, PS)	–	–	–	–	79%	–
GCAGTTTTGTAAGTGC (sugars kkkddddkekeddddd, PS)	–	–	–	–	60%	–
GCATTCAGAATTTCCA (sugars k3 d4 k3 e1 d5, PS)	33	73%	90%	92%	95%	–
GCTAATTTTCTGACTG (sugars k4 d9 k3, PS)	–	77% and 60%	95% and 85%	98% and 91%	–	–
GCTAATTTTCTGACTG (sugars kekddddeekkddddd, PS)	13	42%	69%	87%	94%	–
GCTAATTTTCTGACTG (sugars kkddddekekeddddd, PS)	–	–	–	–	88%	–
GCTAATTTTCTGACTG (sugars kkddddkekekddddd, PS)	28	63%	86%	92%	96%	50%
GCTAATTTTCTGACTG (sugars kkddddkekekkdddd, PS)	–	–	–	–	71%	–
GCTAATTTTCTGACTG (sugars kkkddddkdkdkdddd, PS)	40	66%	85%	93%	93%	34%
GCTTTAAACTCAGGTG (sugars k2 d4 e4 k2 d4, PS)	–	–	–	–	95%	–
GCTTTAAACTCAGGTG (sugars k4 d9 k3, PS)	–	–	76% and 79%	91% and 89% and 82%	–	11%
GCTTTAAACTCAGGTG (sugars kdddddkekekddddd, PS)	–	–	–	–	92%	–
GCTTTAAACTCAGGTG (sugars kkddddkekekddddd, PS)	–	–	–	–	86%	–
GCTTTAAACTCAGGTG (sugars kkddddkekekkdddd, PS)	–	–	–	–	50%	–
GGAATTATGGAATTGC (sugars k4 d9 k3, PS)	–	74%	93%	98%	–	55%

Sequence	target mRNA inhibition (A431, 0.0156 µM) [%]	target mRNA inhibition (A431, 0.0625 µM)	target mRNA inhibition (A431, 0.25 µM)	target mRNA inhibition (A431, 1 µM)	target mRNA inhibition (A431, 2 µM)	target mRNA inhibition (A431, 0.04 µM)
GGAATTATGGAATTGC (sugars kekddddeekkddddd, PS)	23	63%	90%	97%	98%	–
GGAATTATGGAATTGC (sugars kkddddkekekddddd, PS)	–	–	–	–	82%	–
GGAATTATGGAATTGC (sugars kkkddddkekeddddd, PS)	–	–	–	–	55%	–
GGAATTATGGAATTGC (sugars kkkddddkekekdddd, PS)	–	–	–	–	66%	–
GGCAAGGCTAAGTTCC (sugars k4 d9 k3, PS)	–	41%	75%	84%	–	–
GGCAGTTTTGTAAGTG (sugars kkkddddkekekdddd, PS)	–	–	–	–	32%	–
GGGAAATGAACGCAAT (sugars k4 d9 k3, PS)	–	22%	60%	83%	–	–
GGGAATTATGGAATTG (sugars k3 d4 k3 e1 d5, PS)	–	–	–	–	77%	–
GGGTTATGAAATTATT (sugars k2 d4 e3 k2 d5, PS)	–	–	–	–	77%	–
GGGTTATGAAATTATT (sugars kkkddddkekekdddd, PS)	–	–	–	–	73%	–
GTATTGCCAGCTAAGG (sugars kdddddkekekddddd, PS)	29	50%	70%	87%	93%	–
GTATTGCCAGCTAAGG (sugars kkddddkekekkdddd, PS)	–	–	–	–	74%	–
GTATTGTTTTTGTGGG (sugars kddddkekekeddddd, PS)	–	–	–	–	70%	–
GTATTTCTTGATGTGG (sugars k2 d4 e3 k2 d5, PS)	–	–	–	–	97%	–
GTATTTCTTGATGTGG (sugars kkddddkdkdkddddd, PS)	–	–	–	–	87%	–
GTATTTCTTGATGTGG (sugars kkddddkekekddddd, PS)	–	–	–	–	75%	–
GTATTTCTTGATGTGG (sugars kkddddkekekkdddd, PS)	–	–	–	–	52%	–
GTATTTCTTGATGTGG (sugars kkkddddkdkdkdddd, PS)	24	59%	82%	86%	92%	–
GTATTTCTTGATGTGG (sugars kkkddddkekeddddd, PS)	50	80%	96%	97%	98%	–
GTCATATCAGATGGGT (sugars k4 d9 k3, PS)	–	52%	77%	91%	–	–
GTCATTAGTGCTATAG (sugars k4 d9 k3, PS)	–	68%	87%	93%	–	–
GTGTATTTCTTGATGT (sugars kkddddekekeddddd, PS)	36	65%	83%	92%	94%	–
GTGTGATAACTAGCTG (sugars k4 d9 k3, PS)	–	78%	88%	93%	–	–
GTGTTATATTTGATCC (sugars k2 d4 e3 k2 d5, PS)	–	–	–	98%	98%	52% and 50%
GTGTTATATTTGATCC (sugars k3 d4 k3 e1 d5, PS)	32	63%	84%	91%	94%	50%
